# Data published in patent publication US6905865B1, “Detection of a gene, vatE, encoding an acetyltransferase inactivating streptogramin” (Institut Pasteur, priority 1999, dated 2005).
# What was measured:
# S. aureus RN4220 [pOX7] = experiment: MIC of pristinamycin IIA for S. aureus RN4220 carrying the shuttle vector pOX7; type: cell-based; conditions: Staphylococcus aureus; S. aureus recipient RN4220 with empty shuttle vector pOX7
# Procedure: (§1) A DNA fragment of 858 nt containing vatE (nt 104 to nt 961, Accession No. AF153312) was amplified from pIP1798 and inserted between the EcoRI and SmaI sites of the shuttle vector, pOX7 (11). The resulting plasmid, pIP1801, introduced by electroporation in the S. aureus recipient, RN4220 (15), conferred resistance to pristinamycin IIA (MICs: 2 μg/ml for RN4220 [pOX7] and 8 μg/ml for RN4220 [pIP1801]).
# [1] = system: S. aureus RN4220 [pIP1801]; experiment: MIC of pristinamycin IIA for S. aureus RN4220 carrying pIP1801 (vatE); type: cell-based; conditions: Staphylococcus aureus; S. aureus recipient RN4220 with pIP1801 (pOX7 carrying vatE), introduced by electroporation
# Procedure: as §1
structure (smiles),measurement,setting,value
CC1=C\[C@@H](O)CC(=O)Cc2nc(co2)C(=O)N2CCC=C2C(=O)O[C@H](C(C)C)[C@H](C)/C=C/C(=O)NC\C=C\1 [pristinamycin IIA],MIC,S. aureus RN4220 [pOX7],2 µg/mL
same,MIC,[1],8 µg/mL
